The values below come from patent US20130184270A1, “SUBSTITUTED 2,3-DIHYDROIMIDAZO[1,2-C]QUINAZOLINE-CONTAINING COMBINATIONS” (priority 2010, published 2013).

Broadly, the IC90 is the point of the concentration-response curve where the effect stands at 90%.

Where two headings read alike, the source gives them in different places. Where only a bound is given, the exact number is not on record here.

Series [1] concerns Lu7187 primary human tumor (NSCLC). To be noted: for sensitivity of the model / T/C / animals with disease progression: Lu7187; for animals with disease progression: respective monotherapy groups. Here is the method:
(§1) The in vivo combination effects were evaluated in tumor xenograft models in nude mice with either established human tumor cell lines or patient-derived primary tumor models at the MTD and sub-MTD dosages.
Lu7187 primary human tumor was derived from a patient with NSCLC and was xenografted in nude mice. The tumor was propagated in vivo and tumor tissue from one in vivo passage was used for s.c. implantation in the inguinal region of male nude mice. Treatment was started when the tumors were approximately 0.1 cm^3 in size. Treatment was continued until progression of the tumors. Tumor diameters and body weight were monitored t weekly. cA* was dosed at 14 mg/kg, Q2D×10 from day 7 to day 25 (group C, H and I), or 10 mg/kg, BID×1 weekly on day 7, 14, 21 and 28. cB was dosed at either 12.5 mg/kg (group D, F and H), QD, or 25 mg/kg (group E, G and I), QD from day 7 to day 35.

Series [2] concerns Lu7343 primary human tumor (NSCLC). Put plainly: patient-derived NSCLC xenograft model, cA plus paclitaxel (text: Lu7187; FIG. 5: Lu7343). The series is classed as in vivo, nude mice. Here is the method: as §1
The synergistic combination of cA* and palitaxel was also confirmed in a patient-derived NSCLC xenograft model—Lu7187.
FIG. 5: Dose-dependent tumor growth inhibition in Lu7343 primary human xenograft NSCLC model. Lu7343 primary human tumor was derived from a patient with NSCLC and was xenografted in nude mice. The tumor was propagated in vivo and tumor tissue from one in vivo passage was used for s.c. implantation in the inguinal region of male nude mice. Treatment was started when the tumors were approximately 0.1 cm^3 in size. Treatment was continued until progression of the tumors. Tumor diameters and body weight were monitored t weekly. cA* was dosed at 10 mg/kg, BIDx1 weekly on day 15, 22, and 29. paclitaxel was dosed at either 15 mg/kg, or 25 mg/kg, once a week on day 14, 21 and day 28.

In series [3] the test system is CRC SW620 Tumor Cell Line. The experiment in a line: 72-hour cell proliferation assay (Cell Titer Glo), combination index. Type of series: cell-based. The settings on record: Homo sapiens, SW-620; SW620, single agent, 90% inhibition not reached. Here is the method:
The effects of combinations of the present invention were evaluated using combination index isobologram analysis for in vitro assessment. The efficacy parameters were the effects in a 72-hour cell proliferation assay or in a 48-hour caspase 3/7 activation assay. Briefly, cells were plated in 384-well plate with 25 μL medium. […] Experiments were conducted in triplicates. The mapping EC50/IC50 and EC90/IC90 values were calculated using Analyze5 computer program. The corresponding component concentrations of cA and BB (either cB, or Lapatinib, or paclitaxel (as component B)) at the […] were calculated and used for plotting isobolograms. […] IC50 and IC90 refers to the IC50 and IC90 obtained from the dose-response curve of either cA* or cB alone, or cA* plus cB with the ratio indicated in the table, where the top relative concentration is defined as 1.

For series [4], the system named is NCI-H1975, NCI-H1650, HCT116, Colo205, MDA-MB-468 cell lines. The experiment in a line: caspase 3/7 activation assay, example (cell line not named). The series is classed as cell-based. Here is the method:
The effects of combinations of the present invention were evaluated using combination index isobologram analysis for in vitro assessment. The efficacy parameters were the effects in a 72-hour cell proliferation assay or in a 48-hour caspase 3/7 activation assay. Briefly, cells were plated in 384-well plate with 25 μL medium. […] Experiments were conducted in triplicates. The mapping EC50/IC50 and EC90/IC90 values were calculated using Analyze5 computer program. The corresponding component concentrations of cA and BB (either cB, or Lapatinib, or paclitaxel (as component B)) at the […] were calculated and used for plotting isobolograms. […] The dose-response curve of either cA* or cB alone, or cA* (as component A) plus cB (as component B) with the ratio indicated in the figure, where the top relative concentrations are defined as 1.

The test system of series [5] is Co5841 primary human tumor (CRC). Put plainly: Co5841 primary human xenograft CRC model. Type of series: in vivo, nude mice. Here is the method:
as §1
FIG. 3: Dose-dependent tumor growth inhibition in Co5841 primary human xenograft CRC model. Co5841 primary human tumor was derived from a patient with CRC and was xenografted in nude mice. The tumor was propagated in vivo and tumor tissue from one in vivo passage was used for s.c. implantation in the inguinal region of male nude mice. Treatment was started when the tumors were approximately 0.1 cm^3 in size. Treatment was continued until progression of the tumors. Tumor diameters and body weight were monitored weekly. cA* was dosed at 14 mg/kg, Q2D×7 from day 6 to day 22 (group C, H and I), or 10 mg/kg, BID×1 weekly on day 6, 13, and 20. cB was dosed at either 12.5 mg/kg (group D, F and H), QD, […]

Take `CC(=O)O[C@H]1C(=O)[C@@]2(C)[C@H]([C@H](OC(=O)c3ccccc3)[C@]3(O)C[C@H](OC(=O)[C@H](O)[C@@H](NC(=O)c4ccccc4)c4ccccc4)C(C)=C1C3(C)C)[C@]1(OC(C)=O)CO[C@@H]1C[C@@H]2O` [Paclitaxel]: the “sensitivity of the model” value in series [1] is “resistant”. For the same molecule, in series [2] (paclitaxel 25 mg/kg (MTD)), the single agent efficacy result is on record as “very efficacious”. Also, the “mice with disease progression after stopping the treatment” value in series [2] (paclitaxel 25 mg/kg single agent) was 60%.

In the case of `COc1c(OCCCN2CCOCC2)ccc2c1N=C(NC(=O)c1cnc(N)nc1)N1CCN=C21` [cA, 2-amino-N-[7-methoxy-8-(3-morpholin-4-ylpropoxy)-2,3-dihydroimidazo[1,2-c]quinazolin-5-yl]pyrimidine-5-carboxamide], the IC90 in series [3] is more than 5 µM. Also, in series [4] (5 μM), the “induction of apoptosis (caspase 3/7), single agent” value is “Neither 10 μM of cB nor 5 μM of cA as single agents could induce apoptosis”. The T/C in series [5] (cA 10 mg/kg BID weekly (day 6, 13, 20)) stood at 0.49; in series [5] (cA 14 mg/kg Q2D, day 6 to 22), 0.39; in series [1] (cA 10 mg/kg BID weekly (day 7, 14, 21, 28)) it was 0.88. Further, the “animals with disease progression (DP)” value in series [5] (cA 10 mg/kg BID weekly monotherapy) turned out to be 90%; in series [5] (cA 14 mg/kg Q2D monotherapy), 100%. Besides, in series [1], the “animals with disease progression” value is 100%. In series [1] (mouse, in vivo), the “body weight loss of weekly dosing compared with Q2D dosing” value is “less body weight loss”.

For the molecule `COc1cc([C@@H]2c3cc4c(cc3[C@@H](O[C@@H]3O[C@@H]5CO[C@@H](C)O[C@H]5[C@H](O)[C@H]3O)[C@H]3COC(=O)[C@H]23)OCO4)cc(OC)c1O` [etoposid, reference compound], in series [1], the “sensitivity of the model” value is “resistant”.

As for `C#Cc1cccc(Nc2ncnc3cc(OCCOC)c(OCCOC)cc23)c1` [erlotinib, reference compound], the “sensitivity of the model” value in series [1] is reported as “resistant”.

As for `COc1cc(F)c(F)c(Nc2ccc(I)cc2F)c1NS(=O)(=O)C1(C[C@H](O)CO)CC1` [cB, (S)—N-(3,4-difluoro-2-(2-fluoro-4-iodophenylamino)-6-methoxyphenyl)-1-(2,3-dihydroxypropyl)cyclopropane-1-sulfonamide], the IC90 in series [3] is more than 5 µM. Moreover, the “induction of apoptosis (caspase 3/7), single agent” value in series [4] (10 μM) is “Neither 10 μM of cB nor 5 μM of cA as single agents could induce apoptosis”. Further, the T/C in series [5] (cB 12.5 mg/kg daily, day 6 to 23) is on record as 0.35; in series [1] (cB 12.5 mg/kg daily, day 7 to 35) it was 0.46; in series [1] (cB 25 mg/kg daily, day 7 to 35), 0.31. For the same molecule, the “animals with disease progression (DP)” value in series [5] (cB 25 mg/kg monotherapy) turned out to be 70%. Moreover, in series [1], the “animals with disease progression” value stood at 100%.
